Data reported in patent US8148531B2 (Chroma Therapeutics Ltd., priority 2005, dated 2012).

Experiments:
[1] = target: T1, Aurora-A (Homo sapiens, UniProt O14965); experiment: Aurora-A enzyme assay (MBP-coated Flashplate, γ-33P-ATP); format: biochemical; settings: IC50 range class; read-out: Inhibitor Activity vs Aurora-A
T1 sequence (O14965 1-403): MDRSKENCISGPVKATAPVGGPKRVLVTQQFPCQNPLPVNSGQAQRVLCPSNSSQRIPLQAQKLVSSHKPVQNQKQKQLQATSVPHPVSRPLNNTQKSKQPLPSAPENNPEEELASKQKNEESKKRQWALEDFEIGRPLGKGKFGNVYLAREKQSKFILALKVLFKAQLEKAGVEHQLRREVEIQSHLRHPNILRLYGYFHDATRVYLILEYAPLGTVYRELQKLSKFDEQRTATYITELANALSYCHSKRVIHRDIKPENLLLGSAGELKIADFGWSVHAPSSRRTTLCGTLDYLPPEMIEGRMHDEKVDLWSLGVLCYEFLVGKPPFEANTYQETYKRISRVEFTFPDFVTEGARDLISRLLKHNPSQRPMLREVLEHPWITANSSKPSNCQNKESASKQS
Description: (§1) The ability of compounds to inhibit Aurora-A activity was measured using a simple microplate assay for Aurora-A activity, also suitable for high-throughput screening. In brief, γ-^33P-ATP and Aurora-A were incubated in a myelin basic protein (MBP)-coated Flashplate® to generate a scintillation signal. The plates were formatted to contain the inhibitor, controls, positive control (staurosporin) and blanks. After incubation at 37° C. for 1 hour and a subsequent wash procedure, the plates were read on a TopCount-NXT™.
The 384-well basic Flashplate® and the γ-^33P-ATP were obtained from PerkinElmer Life Sciences, Boston, Mass.
(§2) IC50 values were determined by non-linear regression analysis, after fitting the data point results to the equation for sigmoidal dose response with variable slope (% activity against log concentration of compound), using Graphpad Prism software.
Full experimental procedure for this assay can be found within the following reference: Sun, C Journal of Biomolecular Screening 9(5), 2004, 391.

[2] = target: Aurora-B (Homo sapiens, UniProt Q96GD4); experiment: Aurora-B enzyme assay (identical protocol as Aurora-A); format: biochemical; settings: IC50 range class; read-out: Inhibitor Activity vs Aurora-B
Description: as §1, §2
The Aurora-B enzyme assay follows the identical protocol as Aurora-A.

[3] = tested on: HUT cell line; experiment: Cell inhibition assay (SRB cell viability), HUT; format: cell-based; settings: IC50 range class, 72 h, read-out: Inhibitor Activity vs HUT cell line
In short: (§3)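 Log-phase cells seeded at 1000 cells/well, grown 24 h, then exposed to compounds (20 uM final) for 72 h. Viability read by sulphorhodamine B staining as % inhibition versus DMSO; IC50 from eight-point sigmoidal variable-slope fit.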

[4] = tested on: HCT 116 cell line; experiment: Cell inhibition assay (SRB cell viability), HCT 116; format: cell-based; settings: Homo sapiens, IC50 range class, 72 h, read-out: Inhibitor Activity vs HCT 116 cell line
In short: as §3

[5] = tested on: U937 cell line; experiment: Cell inhibition assay (SRB cell viability), U937; format: cell-based; settings: Homo sapiens, U-937, IC50 range class, 72 h, read-out: Inhibitor Activity vs U937 cell line
In short: as §3

Aurora-B, sequence (Q96GD4 whole entry): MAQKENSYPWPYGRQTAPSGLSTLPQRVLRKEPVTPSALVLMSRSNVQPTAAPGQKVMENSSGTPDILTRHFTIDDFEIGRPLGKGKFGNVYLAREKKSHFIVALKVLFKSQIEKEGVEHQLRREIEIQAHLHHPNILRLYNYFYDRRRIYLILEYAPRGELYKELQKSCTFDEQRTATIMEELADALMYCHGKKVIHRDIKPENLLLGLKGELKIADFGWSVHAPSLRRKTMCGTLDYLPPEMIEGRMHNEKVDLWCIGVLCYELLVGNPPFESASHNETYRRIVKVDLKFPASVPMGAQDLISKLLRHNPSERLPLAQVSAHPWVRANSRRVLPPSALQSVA

IC50 [1] [µM] | IC50 [2] [µM] | IC50 [4] [µM] | IC50 [5] [µM] | Compound | IC50 [3] [µM]
> 5 | 2 to 5 |  |  | COc1cc2c(Oc3ccc(NC(=O)c4ccccc4)c(F)c3)ccnc2cc1OCC[C@H](N)C(=O)O [Example 131, (S)-2-Amino-4-[4-(4-benzoylamino-3-fluoro-phenoxy)-6-methoxy-quinolin-7-yloxy]-butyric acid] | 
> 5 | 2 to 5 |  |  | COc1cc2c(Nc3ccc(NC(=O)c4ccccc4)cc3)ccnc2cc1OCC[C@H](N)C(=O)O [Example 16, (S)-2-Amino-4-[4-(4-benzoylamino-phenylamino)-6-methoxy-quinolin-7-yloxy]-butyric acid] | 
< 2 | < 2 |  |  | COc1cc2c(Oc3ccc(NC(=O)Nc4ccc(C(F)(F)F)cc4)cc3)ccnc2cc1OCC[C@H](N)C(=O)O [Example 94, (S)-2-Amino-4-(6-methoxy-4-{4-[3-(4-trifluoromethyl-phenyl)-ureido]-phenoxy}-quinolin-7-yloxy)-butyric acid] | 
2 to 5 | < 2 |  |  | COc1cc2c(Oc3ccc(CNC(=O)c4ccccc4)cc3)ccnc2cc1OCC[C@H](N)C(=O)O [Example 142, (S)-2-Amino-4-{4-[4-(benzoylamino-methyl)-phenoxy]-6-methoxy-quinolin-7-yloxy}-butyric acid] | 
2 to 5 | 2 to 5 |  |  | COc1cc2c(Oc3ccc(C(=O)Nc4ccccc4)cc3)ccnc2cc1OCC[C@H](N)C(=O)O [Example 78, (S)-2-Amino-4-[6-methoxy-4-(4-phenylcarbamoyl-phenoxy)-quinolin-7-yloxy]-butyric acid] | 
2 to 5 | < 2 |  |  | COc1cc2c(Oc3ccc(CC(=O)Nc4ccccc4F)cc3)ccnc2cc1OCC[C@H](N)C(=O)O [Example 83, (S)-2-Amino-4-(4-{4-[(2-fluoro-phenylcarbamoyl)-methyl]-phenoxy}-6-methoxy-quinolin-7-yloxy)-butyric acid] | 
< 2 | < 2 |  |  | COc1cc2c(Oc3ccc(NC(=O)Nc4ccc(C(F)(F)F)cc4)cc3F)ccnc2cc1OCC[C@H](N)C(=O)O [Example 126, (S)-2-Amino-4-(4-{2-fluoro-4-[3-(4-trifluoromethyl-phenyl)-ureido]-phenoxy}-6-methoxy-quinolin-7-yloxy)-butyric acid] | 
< 2 | 2 to 5 |  |  | COc1cc2nccc(Oc3ccc(NC(=O)c4ccccc4)cc3)c2cc1OCC[C@H](N)C(=O)O [Example 36, (S)-2-Amino-4-[4-(4-benzoylamino-phenoxy)-7-methoxy-quinolin-6-yloxy]-butyric acid] | 
< 2 | < 2 |  |  | COc1cc2c(Oc3ccc(NC(=O)c4ccccc4)cc3)ccnc2cc1OCCC[C@H](N)C(=O)O [Example 110, (S)-2-Amino-5-[4-(4-benzoylamino-phenoxy)-6-methoxy-quinolin-7-yloxy]-pentanoic acid] | 
< 2 | < 2 |  |  | COc1cc2c(Oc3ccc(NC(=O)c4cccs4)cc3)ccnc2cc1OCC[C@H](N)C(=O)O [Example 76, (S)-2-Amino-4-(6-methoxy-4-{4-[(thiophene-2-carbonyl)-amino]-phenoxy}-quinolin-7-yloxy)-butyric acid] | 
> 5 |  | > 5 | < 1 | COc1cc2c(Nc3ccc(NC(=O)c4ccccc4)cc3)c(C#N)cnc2cc1OCC[C@H](NC(=O)OC(C)(C)C)C(=O)OC1CCCC1 [Example 28] | 1 to 5
< 2 | < 2 |  |  | COc1cc2c(Oc3ccc(NC(=O)c4ccc(C(F)(F)F)cc4)cc3)ccnc2cc1OCC[C@H](N)C(=O)O [Example 54, (S)-2-Amino-4-{6-methoxy-4-[4-(4-trifluoromethyl-benzoylamino)-phenoxy]-quinolin-7-yloxy}-butyric acid] | 
2 to 5 | < 2 |  |  | COc1ccc(NC(=O)Cc2ccc(Oc3ccnc4cc(OCC[C@H](N)C(=O)O)c(OC)cc34)cc2)cc1 [Example 91, (S)-2-Amino-4-(6-methoxy-4-{4-[(4-methoxy-phenylcarbamoyl)-methyl]-phenoxy}-quinolin-7-yloxy)-butyric acid] | 
> 5 | < 2 |  |  | COc1ccc(C(=O)Nc2ccc(Oc3ccnc4cc(OCC[C@H](N)C(=O)O)c(OC)cc34)cc2)cc1 [Example 58, (S)-2-Amino-4-{6-methoxy-4-[4-(4-methoxy-benzoylamino)-phenoxy]-quinolin-7-yloxy}-butyric acid] | 
2 to 5 | 2 to 5 |  |  | COc1cc2c(Sc3ccc(NC(=O)C4CC4)cc3)ccnc2cc1OCC[C@H](N)C(=O)O [Example 21, (S)-2-Amino-4-{4-[4-(cyclopropanecarbonyl-amino)-phenylsulfanyl]-6-methoxy-quinolin-7-yloxy}-butyric acid] | 
2 to 5 | 2 to 5 |  |  | COc1cc2c(Oc3ccc(NC(=O)c4ccccc4)cc3OC)ccnc2cc1OCC[C@H](N)C(=O)O [Example 133, (S)-2-Amino-4-[4-(4-benzoylamino-2-methoxy-phenoxy)-6-methoxy-quinolin-7-yloxy]-butyric acid] | 
< 2 | < 2 |  |  | COc1cc2c(Oc3ccc(NC(=O)c4ccc(Cl)cc4)cc3)ccnc2cc1OCC[C@H](N)C(=O)O [Example 67, (S)-2-Amino-4-{4-[4-(4-chloro-benzoylamino)-phenoxy]-6-methoxy-quinolin-7-yloxy}-butyric acid] | 
< 2 | < 2 |  |  | COc1cc2c(Oc3ccc(NC(=O)Nc4ccccc4)cc3)ccnc2cc1OCCC[C@@H](N)C(=O)O [Example 118, (R)-2-Amino-5-{6-methoxy-4-[4-(3-phenyl-ureido)-phenoxy]-quinolin-7-yloxy}-pentanoic acid] | 
< 2 | < 2 |  |  | COc1cc2c(Oc3ccc(NC(=O)Nc4ccc(C(F)(F)F)cc4)cc3)ccnc2cc1OCC[C@@H](N)C(=O)O [Example 105, (R)-2-Amino-4-(6-methoxy-4-{4-[3-(4-trifluoromethyl-phenyl)-ureido]-phenoxy}-quinolin-7-yloxy)-butyric acid] | 
2 to 5 | < 2 |  |  | COc1cc2c(Oc3ccc(NC(=O)c4ccccc4)cc3)ccnc2cc1OCC[C@@H](N)C(=O)O [Example 100, (R)-2-Amino-4-[4-(4-benzoylamino-phenoxy)-6-methoxy-quinolin-7-yloxy]-butyric acid] | 
< 2 | < 2 |  |  | COc1cc2c(Oc3ccc(NC(=O)Nc4ccc(C(F)(F)F)cc4)cc3)ccnc2cc1OCCC[C@@H](N)C(=O)O [Example 120, (R)-2-Amino-5-(6-methoxy-4-{4-[3-(4-trifluoromethyl-phenyl)-ureido]-phenoxy}-quinolin-7-yloxy)-pentanoic acid] | 
< 2 | 2 to 5 |  |  | COc1cc2c(Nc3cnc(NC(=O)c4ccccc4)nc3)ccnc2cc1OCC[C@H](N)C(=O)O [Example 26, (S)-2-Amino-4-[4-(2-benzoylamino-pyrimidin-5-ylamino)-6-methoxy-quinolin-7-yloxy]-butyric acid] | 
< 2 | < 2 |  |  | COc1cc2c(Oc3ccc(NC(=O)Nc4ccccc4)cc3)ccnc2cc1OCC[C@H](N)C(=O)O [Example 96, (S)-2-Amino-4-{6-methoxy-4-[4-(3-phenyl-ureido)-phenoxy]-quinolin-7-yloxy}-butyric acid] | 
> 5 |  | 1 to 5 | 1 to 5 | COc1cc2c(Nc3ccc(NC(=O)c4ccccc4)cc3)c(C#N)cnc2cc1OCC[C@H](N)C(=O)OC1CCCC1 [Example 27] | < 1
 | 2 to 5 | < 1 | < 1 | COc1cc2c(Oc3ccc(NC(=O)c4ccccc4)cc3F)ccnc2cc1OCC[C@H](N)C(=O)OC1CCCC1 [Example 128, (S)-2-Amino-4-[4-(4-benzoylamino-2-fluoro-phenoxy)-6-methoxy-quinolin-7-yloxy]-butyric acid cyclopentyl ester] | < 1
 | > 5 | 1 to 5 | < 1 | COc1cc2nccc(Oc3ccc(NC(=O)c4ccccc4)cc3)c2cc1OCC[C@H](N)C(=O)OC1CCCC1 [Example 35, (S)-2-Amino-4-[4-(4-benzoylamino-phenoxy)-7-methoxy-quinolin-6-yloxy]-butyric acid cyclopentyl ester] | 1 to 5
